Experimental data published in patent US20210188856A1, “CRYSTAL FORM OF HYDROCHLORIDE OF PYRAZOLOHETEROARYL DERIVATIVE AND PREPARATION METHOD” (JIANGSU HENGRUI MEDICINE CO., LTD., priority 2018, published 2021).

Experiment: Influencing factors stability (heating, light illumination, high humidity; spread and uncovered, 20 days)
Type: physicochemical
Details: for Maximum single impurity / Purity / Total impurities: monohydrochloride; for stability under the influencing factor conditions (in words): light illumination
Procedure: Example 6: the crystal form I of the dihydrochloride salt of the compound represented by formula (I) (example 1) was spread and uncovered, and the steadily of the sample was evaluated under heating (40° C., 60° C.), light illumination (4500 Lux), and high humidity (RH 75%, RH 90%) with a period of 20 days.
(§1) Example 10: the crystal form A (example 7) of the monohydrochloride salt of the compound of formula (I) was spread and uncovered, and the stability of the sample was evaluated under heating (40° C., 60° C.), light illumination (4500 Lux), high humidity (RH 75%, RH 90%) conditions with a period of 20 days.
as §1, with “Example 11:” for “Example 10:”, “form B” for “form A (example 7)”, “compound represented by” for “compound of”, “(I) (example 8)” for “(I)”
as §1, with “Example 12:” for “Example 10:”, “form C” for “form A (example 7)”, “compound represented by” for “compound of”, “(I) (example 9)” for “(I)”

[1] = light illumination (4500 Lux), 4 days
[2] = light illumination (4500 Lux), 10 days
[3] = light illumination (4500 Lux), 20 days
[4] = 40° C., 60° C., 75% RH, 90% RH, 20 days

CCCCOc1nc(N)c2cnn(Cc3ccc(CN4CCCC4)cc3)c2n1.Cl [crystal form B, 6-butoxy-1-(4-(pyrrolidin-1-ylmethyl)benzyl)-1H-pyrazolo[3,4-d]pyrimidin-4-amine monohydrochloride]
Maximum single impurity (0 day): 0.10%
Purity (0 day): 99.54%
Total impurities (0 day): 0.46%
Maximum single impurity (40° C., 4 days): 0.19%
Purity (40° C., 4 days): 99.31%
Total impurities (40° C., 4 days): 0.69%
Maximum single impurity (40° C., 10 days): 0.10%
Purity (40° C., 10 days): 99.53%
Total impurities (40° C., 10 days): 0.47%
Maximum single impurity (40° C., 20 days): 0.14%
Purity (40° C., 20 days): 99.39%
Total impurities (40° C., 20 days): 0.61%
Maximum single impurity (60° C., 4 days): 0.14%
Purity (60° C., 4 days): 99.34%
Total impurities (60° C., 4 days): 0.66%
Maximum single impurity (60° C., 10 days): 0.10%
Purity (60° C., 10 days): 99.42%
Total impurities (60° C., 10 days): 0.58%
Maximum single impurity (60° C., 20 days): 0.10%
Purity (60° C., 20 days): 99.21%
Total impurities (60° C., 20 days): 0.79%
Maximum single impurity (75% RH, 4 days): 0.11%
Purity (75% RH, 4 days): 99.54%
Total impurities (75% RH, 4 days): 0.46%
Maximum single impurity (75% RH, 10 days): 0.10%
Purity (75% RH, 10 days): 99.61%
Total impurities (75% RH, 10 days): 0.39%
Maximum single impurity (75% RH, 20 days): 0.10%
Purity (75% RH, 20 days): 99.57%
Total impurities (75% RH, 20 days): 0.43%
Maximum single impurity (90% RH, 4 days): 0.10%
Purity (90% RH, 4 days): 99.54%
Total impurities (90% RH, 4 days): 0.46%
Maximum single impurity (90% RH, 10 days): 0.10%
Purity (90% RH, 10 days): 99.61%
Total impurities (90% RH, 10 days): 0.39%
Maximum single impurity (90% RH, 20 days): 0.10%
Purity (90% RH, 20 days): 99.59%
Total impurities (90% RH, 20 days): 0.41%
Maximum single impurity [1]: 0.10%
Purity [1]: 99.51%
Total impurities [1]: 0.49%
Maximum single impurity [2]: 0.10%
Purity [2]: 99.56%
Total impurities [2]: 0.44%
Maximum single impurity [3]: 0.11%
Purity [3]: 99.45%
Total impurities [3]: 0.55%
stability under the influencing factor conditions (in words) [4]: good

CCCCOc1nc(N)c2cnn(Cc3ccc(CN4CCCC4)cc3)c2n1.Cl [crystal form C, 6-butoxy-1-(4-(pyrrolidin-1-ylmethyl)benzyl)-1H-pyrazolo[3,4-d]pyrimidin-4-amine monohydrochloride]
Maximum single impurity (0 day): 0.10%
Purity (0 day): 99.55%
Total impurities (0 day): 0.45%
Maximum single impurity (40° C., 4 days): 0.10%
Purity (40° C., 4 days): 99.55%
Total impurities (40° C., 4 days): 0.45%
Maximum single impurity (40° C., 10 days): 0.10%
Purity (40° C., 10 days): 99.60%
Total impurities (40° C., 10 days): 0.40%
Maximum single impurity (40° C., 20 days): 0.10%
Purity (40° C., 20 days): 99.53%
Total impurities (40° C., 20 days): 0.47%
Maximum single impurity (60° C., 4 days): 0.10%
Purity (60° C., 4 days): 99.50%
Total impurities (60° C., 4 days): 0.50%
Maximum single impurity (60° C., 10 days): 0.10%
Purity (60° C., 10 days): 99.58%
Total impurities (60° C., 10 days): 0.42%
Maximum single impurity (60° C., 20 days): 0.13%
Purity (60° C., 20 days): 99.42%
Total impurities (60° C., 20 days): 0.58%
Maximum single impurity (75% RH, 4 days): 0.11%
Purity (75% RH, 4 days): 99.55%
Total impurities (75% RH, 4 days): 0.45%
Maximum single impurity (75% RH, 10 days): 0.09%
Purity (75% RH, 10 days): 99.61%
Total impurities (75% RH, 10 days): 0.39%
Maximum single impurity (75% RH, 20 days): 0.10%
Purity (75% RH, 20 days): 99.57%
Total impurities (75% RH, 20 days): 0.43%
Maximum single impurity (90% RH, 4 days): 0.11%
Purity (90% RH, 4 days): 99.51%
Total impurities (90% RH, 4 days): 0.49%
Maximum single impurity (90% RH, 10 days): 0.10%
Purity (90% RH, 10 days): 99.61%
Total impurities (90% RH, 10 days): 0.39%
Maximum single impurity (90% RH, 20 days): 0.10%
Purity (90% RH, 20 days): 99.58%
Total impurities (90% RH, 20 days): 0.42%
Maximum single impurity [1]: 0.11%
Purity [1]: 99.57%
Total impurities [1]: 0.43%
Maximum single impurity [2]: 0.09%
Purity [2]: 99.64%
Total impurities [2]: 0.36%
Maximum single impurity [3]: 0.10%
Purity [3]: 99.54%
Total impurities [3]: 0.46%
stability under the influencing factor conditions (in words) [4]: good
